According to US7786174B2, “Methods and compounds for inhibiting amyloid deposits” (Bellus Health (International) Limited, priority 1999, dated 2010):

Tests used:
IAPP = biological target: T1, IAPP (Homo sapiens, UniProt P10997); assay: Circular dichroism analysis of IAPP-associated fibril formation (β-sheet conformation), co-incubation procedure; assay type: biochemical; details: change in ellipticity at 218 nm vs peptide-only control; molar ratio 1:10 peptide:compound; water or 10 mM phosphate buffer pH 7; relative value active / not active
T1 construct: add 10 μL of 10 mg/mL IAPP stock solution (final 100 μg peptide)
T1 sequence (P10997 34-70 limits assumed): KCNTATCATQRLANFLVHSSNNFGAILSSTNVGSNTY
Protocol: Cell/cuvette: Hellma quartz (QS) with 1.0 mm pathlength
Wavelength interval: 250 nm-190 nm
Scanning speed: 20 nm/min
The assay, a co-incubation procedure, examines the ability of a compound or substance to inhibit the assembly of amyloid fibrils, e.g., to test for the presence of the amyloidotic β-sheet conformation in the presence of soluble IAPP. Samples are run in the presence and absence (i.e., water alone) of buffering agent, which is done to determine if competitive effects are seen with the ionic buffer (usually phosphate).
Add components used at a molar ratio of 1:10 [peptide:compound]; add 10 μL of 10 mg/mL IAPP stock solution (final 100 μg peptide) to the aqueous solution containing compound to a final volume of 400 μl. The pH of the final assay solution is measured to ensure there is no fluctuation and the spectrum is accumulated using the parameters as shown above.
Add desired amount of compound to achieve a 1:10 molar ratio in 10 mM phosphate buffer, pH 7. Add 10 μL of 10 mg/mL IAPP stock solution (final peptide 100 μg) to the phosphate buffered solution containing the compound and bring to a final volume of 400 μL. The pH of the final assay solution is measured to ensure there is no fluctuation and the spectrum is accumulated using the parameters as shown above.
In both assays, a control sample is run with each test group.
Make fresh 1 mg/mL stock solution of IAPP in 10 mM phosphate buffer, pH 7. Add desired amount of compound to achieve a 1:10 molar ratio in 10 mM phosphate buffer, pH 7. Incubate for 3 days at room temperature. Make up to final volume of 400 μL with 10 mM phosphate buffer, pH 7. The pH of the final assay solution is measured to ensure there is no fluctuation and the spectrum is accumulated using the parameters as shown above.
Plots of the spectra (control and treated) are individually assembled and the changes in ellipticity at 218 nm are examined. This minimum is directly correlated with the amount of β-sheet present in the sample.

Synthetic human IAPP = biological target: T2, Synthetic human IAPP (Homo sapiens, UniProt P10997); assay: Rate of amyloid fibril formation by Thioflavine T (ThT) spectroscopy; assay type: biochemical; details: ThT 62.5 μM; excitation 440 nm, emission 482 nm; readings from 5 min, over 4-6 h and after overnight at room temperature
T2 construct: Synthetic human IAPP (Bachem) was dissolved in 40% trifluoroethanol and freeze-dried; purchased Bachem; host or cells: chemical synthesis
T2 sequence (P10997 34-70 limits assumed): T1 sequence (P10997 34-70 limits assumed)
Protocol: Determination of the Rate of Amyloid Fibril Formation by Thioflavine T Spectroscopy
Detection of ThT fluorescence can be used as a sensitive assay for amyloid fibril formation under different conditions.
Synthetic human IAPP (Bachem) was dissolved in 40% trifluoroethanol and freeze-dried into conveniently-sized aliquots. IAPP was prepared immediately before the measurements by dissolving in 40% 1,1,1,3,3,3-hexafluoro-2-propanol (HFIP) in water to maintain the peptide in alpha helical conformation and soluble. A stock solution of ThT (2.5 mM) was prepared, 7.9 mg in 10 mL Tris-HCl pH 7.0 and filtered (0.22 μm). Solutions were kept in the dark until use. Fluorescence was examined at 440 nm excitation (slit 5 nm), and emission at 482 nm (slit 10 nm) with stirring. […] The sample was stirred for 5 min. before taking a reading. Measurements were made at an initial time point (5 min. from sample preparation), at intervals over the next 4-6 h and after overnight incubation at room temperature.

| Activity (IAPP) | Compound | effect on IAPP-associated fibril assembly (ThT fluorescence) (Synthetic human IAPP) |
| --- | --- | --- |
| Active | COc1ccc(S(=O)(=O)[O-])c2cccnc12.[Na+] [8-methoxyquinoline-5-sulfonic acid, sodium salt] | inhibit or prevent IAPP-associated fibril assembly |
| Active | CN(C)CCCS(=O)(=O)O [3-dimethylamino-1-propanesulfonic acid] | inhibit or prevent IAPP-associated fibril assembly |
| Active | NCC(O)CS(=O)(=O)O (stereo not drawn) [3-amino-2-hydroxy-1-propanesulfonic acid] | inhibit or prevent IAPP-associated fibril assembly |
| Active | N[C@@H](COP(=O)(O)O)C(=O)O [O-phospho-L-serine] | inhibit or prevent IAPP-associated fibril assembly |
| Active | O=S(=O)(O)CCCNCCCO [3-(3-hydroxy-1-propyl)amino-1-propanesulfonic acid] | inhibit or prevent IAPP-associated fibril assembly |
| Active | O=S(=O)([O-])NC1CCCCC1.[Na+] [cyclohexylsulfamic acid, sodium salt] | inhibit or prevent IAPP-associated fibril assembly |

| Compound | Activity (IAPP) | effect on IAPP-associated fibril assembly (ThT fluorescence) (Synthetic human IAPP) |
| --- | --- | --- |
| O=C(O)C(F)(F)C(F)(F)C(F)(F)C(=O)O [hexafluoroglutaric acid] | Active | inhibit or prevent IAPP-associated fibril assembly |
| O=S(=O)([O-])CCCN1CC=C(c2ccccc2)CC1.[Na+] [4-phenyl-1-(3′-sulfopropyl)-1,2,3,6-tetrahydropyridine, sodium salt] | Active | inhibit or prevent IAPP-associated fibril assembly |
| Cl.c1ccc2c(c1)CCNC2 [1,2,3,4-tetrahydroisoquinoline, HCl] | Active | inhibit or prevent IAPP-associated fibril assembly |
